Data from patent publication US20170216252A1, “ANTI-BACTERIAL PYRUVATE KINASE MODULATOR COMPOUNDS, COMPOSITIONS, USES AND METHODS” (SIMON FRASER UNIVERSITY, priority 2014, published 2017).
pEC50, pIC50: −log10 of the molar value. Converted amounts (≈) assume the structure as drawn. Read-outs that look alike come from different tables or passages of the source.

Experiments:
[1] = target: T1, MRSA PK (Staphylococcus aureus, UniProt Q6GG09); assay: MRSA PK activity, continuous LDH-coupled assay; format: biochemical, S. aureus (MRSA strain Sanger 252)
T1 construct: His tag (pET-28a(+) vector) (N); made in house; host or cells: E. coli BL-21 (DE3)
Source text: Genomic DNA of MRSA strain Sanger 252 extracted using DNeasy Tissue Kit™ (Qiagen™) was used as a template to generate the His-tagged MRSA PK. Human cDNA from MCF-7 breast cancer cell line (courtesy of Dr. J Wong, BC Cancer Research Center (Vancouver, Canada) was used as a template to generate the full-length human M2 PK enzyme. The following primer sets were used creating appropriate restriction sites (NdeI and XhoI sites underlined): For cloning of MRSA PK: M27F 5′-[…]-3′ and M27R 5′-[…]-3′, for cloning of human M2 PK isoform: hM2F 5′-[…]-3′ and hM2R 5′-[…]-3′. The resulting PCR fragments for each construct were cloned into the NdeI and XhoI unique sites of the bacterial expression vector pET-28a (+) (Novagen™). […] The sequence and the correct reading frame of all constructs were verified by sequencing. Human M1, R and L PK constructs in pET-28-a(+) vectors (courtesy of Dr. L. Cantley, Harvard Medical, School (Boston, USA)) were used to generate relevant recombinant His-tagged human PK isoforms.
MRSA and human constructs in pET-28a(+) were used to express relevant recombinant PK proteins in E. coli BL-21 (DE3). The proteins were expressed and purified using Ni-NTA agarose (Qiagen™) according to the manufacturer's protocol. Briefly, cells were grown to an absorbance of 0.4-0.5 at 600 nm in 2×YT medium, then induced with 0.1 mM IPTG for 3 h at 20° C. Cells were lysed by sonication on ice (3×10-s bursts with a 30-s recovery between bursts) in lysis buffer (0.2 mg/ml lysozyme, 50 mM Tris pH 7.5, 10 mM MgCl2, 200 mM NaCl, 100 mM KCl, 10% glycerol, 10 mM imidazole, 0.5% NP-40 and 1 mM DTT containing Complete™ protease inhibitor). Cell lysates were cleared by centrifugation (18,000×g in a Beckman™ JA-20 rotor) for 20 min at 4° C. and PK isoforms were purified by batch binding to Ni-NTA resin. The resins were then packed in columns (1×2 cm) and washed with 400 column volumes lysis buffer containing 30 mM imidazole. His-tagged PK isoforms were eluted with the same buffer containing 300 mM imidazole. The proteins were dialyzed overnight at 4° C. against 2000 volumes of ice-cold 30 mM Tris pH 7.5, 25 mM KCl, 5 mM MgCl2, 10% glycerol and 1 mM DTT to remove imidazole. All purification steps were done at 4° C.; enzymes were flash-frozen and stored at −70° C. […] Purity and physical integrity of proteins were assessed using SDS-polyacrylamide gel electrophoresis (SDS-PAGE) followed by coomassie blue staining. Protein concentration was estimated by Bradford assay (Bio-Rad Protein Assay™) using bovine serum albumin as a standard.
Candidate MRSA PK inhibitors were assayed for their ability to inhibit enzymatic activities of MRSA and human PKs. PK activity was determined using a continuous assay coupled to lactate dehydrogenase (LDH) in which the change in absorbance at 340 nm owing to oxidation of NADH was measured using a Benchmark Plus™ microplate spectrophotometer (Bio-Rad Laboratories, Hercules, Calif.). […] Reactions were initiated by the addition of 15 nM of one of the PK enzymes. PK activity proportional to the rate of change at 340 nm was expressed as specific activity (μmol/min/mg), which is defined as the amount of PK that catalyzes the formation of one micromole of either product per minute. Inhibitors were dissolved in DMSO with the final concentration of the solvent never exceeding 1% of the assay volume. IC50 values were calculated by curve fitting on a four-parameter dose-response model with variable slope using Graphpad Prism 5.0™ (GraphPad™ Software Inc., La Jolla, Calif.). […] Reactions were performed at 30° C. for up to 5 min. All values determined represent at least two measurements, in triplicate (Tables 1-6) or duplicate unless mentioned otherwise.

[2] = tested on: S. aureus ATCC 29213; assay: In vitro susceptibility, broth microdilution MIC; format: cell-based, Staphylococcus aureus
Protocol: The antimicrobial activities of PK inhibitor candidates were determined using the 96-well microtiter standard 2-fold serial broth microdilution method as described by CLSI (formerly NCCLS) with the various gram-positive and gram-negative bacteria species mentioned above. Bacteria from a single colony were grown, overnight in either BHI Broth (VRE), mueller hinton broth (S. aureus 29213; MRSA USA400) or L-broth (E. coli, P. aeruginosa, S. typhimuriu, K. Pneumonia and A. baumannii). […] Culture plates were incubated for 18-24 h at 37° C., and optical density at 600 nm (OD600) was measured using a Benchmark Plus™ microplate spectrophotometer (Bio-Rad™). The absorbance control values for the series containing CAMHB and inhibitor were subtracted as background from the corresponding infected wells. The MIC was defined as the lowest concentration of test compound leading to complete inhibition of cell growth in relationship to compound-free control wells as determined by optical density. […] All assays were run in triplicate (Tables 1-6) or duplicate. Experiments were replicated at least twice to verify reproducibility using the above conditions.

[3] = read-out: % inhibition at the highest concentration tested (IC50)
[4] = Staphylococcus aureus, ATCC29213, Tables 1-6 and text, minimum concentration to give >98% inhibition of growth, read-out: MIC
[5] = Tables 1-6, 2 mM ADP, 10 mM PEP, 15 nM PK, read-out: IC50
[6] = Staphylococcus aureus, ATCC29213, Table 8, tested at least in duplicate, differing values all given, read-out: MIC

T1 sequence (Q6GG09 whole entry): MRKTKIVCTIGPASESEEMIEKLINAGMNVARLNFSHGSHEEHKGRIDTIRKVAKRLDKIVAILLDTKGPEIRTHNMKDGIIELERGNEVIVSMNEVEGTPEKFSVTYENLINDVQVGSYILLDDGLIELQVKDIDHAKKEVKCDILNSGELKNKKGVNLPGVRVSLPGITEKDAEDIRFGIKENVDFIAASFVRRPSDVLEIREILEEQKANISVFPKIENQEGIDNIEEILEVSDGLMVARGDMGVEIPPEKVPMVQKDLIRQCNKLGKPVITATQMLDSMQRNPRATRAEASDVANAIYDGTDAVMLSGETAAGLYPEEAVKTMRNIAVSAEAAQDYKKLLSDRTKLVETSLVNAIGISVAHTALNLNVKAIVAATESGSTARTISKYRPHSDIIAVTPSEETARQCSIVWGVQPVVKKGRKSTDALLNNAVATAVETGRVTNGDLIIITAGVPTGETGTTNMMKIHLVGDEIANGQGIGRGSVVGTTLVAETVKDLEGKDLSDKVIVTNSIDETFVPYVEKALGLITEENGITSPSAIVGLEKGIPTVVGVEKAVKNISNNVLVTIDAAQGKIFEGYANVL

Structure (SMILES) | MIC [2, 4] | pIC50 [1] | MIC [2, 6] | further results
O=C1c2ccc(Br)cc2C(=O)N1c1nc2ccc(Br)cc2s1 [Compound 65, 5-bromo-2-(6-bromobenzo[d]thiazol-2-yl)isoindoline-1,3-dione] | > 64 µg/mL |  |  | inhibition at 10 µM [1, 3]: 76%
O=C(Nc1nc2ccc(Br)cc2s1)c1ccccc1O [Compound 66] | > 64 µg/mL |  |  | inhibition at 10 µM [1, 3]: 59%
O=C(Nc1nc2ccc(Br)cc2s1)c1ccc(Br)cc1O [Compound 67, 4-Bromo-N-(6-bromobenzo[d]thiazol-2-yl)-2-hydroxybenzamide] | > 64 µg/mL |  |  | pIC50 [1, 5]: 6.67
COc1ccc(Br)cc1C(=O)Nc1nc2ccc(Br)cc2s1 [Compound 68, 5-Bromo-N-(6-bromobenzo[d]thiazol-2-yl)-2-methoxybenzamide] | > 64 µg/mL | 8.08 |  | 
Cn1c(C(=O)Nc2nc3ccc(Br)cc3s2)cc2ccccc21 [Compound 69, N-(6-Bromobenzo[d]thiazol-2-yl)-1-methyl-1H-indole-2-carboxamide] | > 64 µg/mL |  |  | inhibition at 10 µM [1, 3]: 61%
O=C(Nc1nc2ccc(Br)cc2s1)c1cccc(Br)c1O [Compound 70, 3-Bromo-N-(6-bromobenzo[d]thiazol-2-yl)-2-hydroxybenzamide] | 4 µg/mL (≈ 9.34 µM) |  |  | pIC50 [1, 5]: 7.37
O=C(Nc1ccc(Br)cc1)c1cc2ccc(Br)cc2s1 [Compound 71, 6-bromo-N-(4-bromophenyl)benzo[b]thiophene-2-carboxamide] | > 64 µg/mL |  |  | inhibition at 10 µM [1, 3]: 55%
O=C(Nc1nc2cc(Br)ccc2s1)c1cc2cc(Br)ccc2[nH]1 [Compound 77, 5-Bromo-N-(5-bromobenzo[d]thiazol-2-yl)-1H-indole-2-carboxamide] | > 64 µg/mL | 8.09 |  | 
O=C(Nc1nc2ccc(Br)cc2[nH]1)c1cc(Br)ccc1O [Compound 78, 5-Bromo-N-(6-bromo-1H-benzo[d]imidazol-2-yl)-2-hydroxybenzamide] | 4 µg/mL (≈ 9.73 µM) | 7.95 |  | 
O=C(Nc1nc2ccc(Br)cc2[nH]1)c1cc2cc(Br)ccc2[nH]1 [Compound 79, 5-bromo-N-(6-bromo-1H-benzo[d]imidazol-2-yl)-1H-indole-2-carboxamide] | > 64 µg/mL | 8.46 |  | 
O=C(Nc1nc2ccc(Br)cc2[nH]1)c1cc2ccc(Br)cc2[nH]1 [Compound 80, 6-Bromo-N-(6-bromo-1H-benzo[d]imidazol-2-yl)-1H-indole-2-carboxamide] | > 64 µg/mL | 8.82 |  | 
Brc1ccc2cc(-c3ccc(-c4ccn[nH]4)s3)[nH]c2c1 [Compound 81, 2-(5-(1H-Pyrazol-5-yl)thiophen-2-yl)-6-bromo-1H-indole] | 0.5 µg/mL (≈ 1.45 µM) | 7.13 |  | 
O=C(Nc1nc2ccc(Br)cc2s1)c1cc2cc(Br)ccc2[nH]1 [Compound 82, 5-Bromo-N-(6-bromobenzo[d]thiazol-2-yl)-1H-indole-2-carboxamide] | > 64 µg/mL | 7.65 |  | 
O=C(Nc1nc2ccc(Br)cc2s1)c1cccc(Cl)c1O [Compound 83, N-(6-bromobenzo[d]thiazol-2-yl)-3-chloro-2-hydroxybenzamide] | 4 µg/mL (≈ 10.4 µM) |  |  | inhibition at 1 µM [1, 3]: 89%
COc1c(Br)cccc1C(=O)Nc1nc2ccc(Br)cc2s1 [Compound 84, 3-Bromo-N-(6-bromobenzo[d]thiazol-2-yl)-2-methoxybenzamide] | > 64 µg/mL |  |  | inhibition at 10 µM [1, 3]: 84%
O=C(Nc1nc2ccc(Br)cc2s1)c1cc(Br)cc(Br)c1O [Compound 85, 3,5-dibromo-N-(6-bromobenzo[d]thiazol-2-3/1)-2-hydroxybenzamide] | 1 µg/mL (≈ 1.97 µM) | 8.39 |  | 
Oc1ccc(Br)cc1-c1ccnc(-c2cc3ccc(Br)cc3[nH]2)c1 [Compound 86, 4-bromo-2-(2-(6-bromo-1H-indol-2-yl)pyridin-4-yl)phenol] | > 64 µg/mL |  |  | inhibition at 10 µM [1, 3]: 62%
O=C(c1cc2ccc(Br)cc2[nH]1)c1cc(Br)ccc1O [Compound 87, (6-Bromo-1H-indol-2-yl)(5-bromo-2-hydroxyphenyl)methanone] | > 64 µg/mL |  |  | inhibition at 10 µM [1, 3]: 58%
CC(=O)c1c(-c2cc3ccccc3[nH]2)[nH]c2cc(Br)ccc12 [Compound 91, 1-(6-bromo-1H,1′H-[2,2′-biindol]-3-yl)ethan-1-one] | 4 µg/mL (≈ 11.3 µM) | 8.11 |  | 
Clc1cc(Cl)cc(/C=C/c2cc3ccc(Br)cc3[nH]2)c1 [Compound 95, (E)-6-Bromo-2-(3,5-dichlorostyryl)-1H-indole] |  | > 7.30 | 7.1 µg/mL (≈ 19.3 µM) | MIC ([2]; Table 8, tested at least in duplicate, differing values all given): 8 µg/mL (≈ 21.8 µM)
Clc1cccc(/C=C/c2cc3ccc(Br)cc3[nH]2)c1 [Compound 96, (E)-6-Bromo-2-(3-chlorostyryl)-1H-indole] |  | 6.00 to 7.00 | > 64 µg/mL | 
O=[N+]([O-])c1cc(/C=C/c2cc3ccc(Br)cc3[nH]2)ccc1Cl [Compound 97, (E)-6-Bromo-2-(4-chloro-3-nitrostyryl)-1H-indole] |  |  | > 64 µg/mL | pEC50 [1]: 8.07
Clc1ccc(/C=C/c2cc3ccc(Br)cc3[nH]2)cn1 [Compound 98, (E)-6-Bromo-2-(2-(6-chloropyridin-3-yl)vinyl)-1H-indole] |  | > 7.30 | > 64 µg/mL | 
Brc1ccc(/C=C/c2cc3ccc(Br)cc3[nH]2)nc1 [Compound 99, (E)-6-Bromo-2-(2-(5-bromopyridin-2-yl)vinyl)-1H-indole] |  | 7.00 to 7.30 | 32 µg/mL (≈ 84.6 µM) | 
Brc1cncc(/C=C/c2cc3ccc(Br)cc3[nH]2)c1 [Compound 100, (E)-6-Bromo-2-(2-(5-bromopyridin-3-yl)vinyl)-1H-indole] |  | < 6.00 | > 64 µg/mL | 
Brc1ccc2cc(/C=C/c3ccc4ccccc4n3)[nH]c2c1 [Compound 101, (E)-2-(2-(6-bromo-1H-indol-2-yl)vinyl)quinoline] | > 64 µg/mL | < 6.00 | > 64 µg/mL | 
FC(F)(F)c1ccc(/C=C/c2cc3ccc(Br)cc3[nH]2)cc1 [Compound 102, (E)-6-Bromo-2-(4-(trifluoromethyl)styryl)-1H-indole] |  | 6.00 to 7.00 | 64 µg/mL (≈ 175 µM) | 
Fc1ccc(/C=C/c2cc3ccc(Br)cc3[nH]2)cc1 [Compound 103, (E)-6-Bromo-2-(4-fluorostyryl)-1H-indole] |  | < 6.00 | > 64 µg/mL | 
Brc1ccc2cc(/C=C/c3ccc(-n4ccnc4)cc3)[nH]c2c1 [Compound 104, (E)-2-(4-(1H-Imidazol-1-yl)styryl)-6-bromo-1H-indole] |  | < 6.00 | > 64 µg/mL | 
